The nature of series [1]: pKa of unformulated amine lipid by TNS fluorescence. Type of series: physicochemical. As to the method: The pKa of each amine lipid was determined according to the method in Jayaraman, et al. (Angew Chem Int Ed Engl 51(34), 2012, 8529-8533) with the following adaptations. The pKa was determined for unformulated amine lipid in ethanol. Lipid stock solutions (2.94 mM) were diluted into Sodium Phosphate Buffers (0.1 M, Boston Bioproducts) of different pH (pH-range: 4.5-9.0) yielding a final lipid concentration of approx. 100 μM. The test samples were supplemented with TNS {6-(p-Toluidino)-2-naphthalenesulfonic acid sodium salt}, incubated and the fluorescence intensity was measured using excitation and emission wavelengths of 321 nm and 448 nm, respectively. The recorded data were normalized and the respective pKa values were derived from sigmoidal fitting.

Another series concerns rat TTR gene. As to the kind of experiment: In vivo editing of TTR in rat liver after LNP delivery (NGS, % editing). Also on record: species or system rat (Sprague-Dawley). The method, then:
LNPs were prepared using various amine lipids in a 4-component lipid system consisting of an ionizable lipid (e.g., an amine lipid), DSPC, cholesterol and a PEG lipid (e.g., PEG2K-DMG, C13 Ether, C14 Ether). In assays for percent liver editing in rats, Cas9 mRNA and chemically modified sgRNA targeting a rat sequence were formulated in LNPs, at either a 1:1 w/w ratio or a 1:2 w/w sgRNA:Cas9 mRNA ratio.
The lipid components were dissolved in 100% ethanol with the lipid component molar ratios described below. The chemically modified sgRNA and Cas9 mRNA were combined and dissolved in 25 mM citrate, 100 mM NaCl, pH 5.0, resulting in a concentration of total RNA cargo of approximately 0.45 mg/mL. The LNPs were formulated with an N:P ratio of about 6, with the ratio of chemically modified sgRNA:Cas9 mRNA at either a 1:1 or 1:2 w/w ratio as described below.
The LNPs were formed by an impinging jet mixing of the lipid in ethanol with two volumes of RNA solution and one volume of water. First, the lipid in ethanol is mixed through a mixing cross with the two volumes of RNA solution. Then, a fourth stream of water is mixed with the outlet stream of the cross through an inline tee. (See, e.g., WO2016010840, FIG. 2). The LNPs were held for 1 hour at room temperature, and further diluted with water (approximately 1:1 v/v). Diluted LNPs were buffer exchanged into 50 mM Tris, 45 mM NaCl, 5% (w/v) sucrose, pH 7.5 (TSS) and concentrated as needed by methods known in the art. The resulting mixture was then filtered using a 0.2 μm sterile filter. The final LNP was stored at 4° C. or −80° C. until further use.
Sprague-Dawley female rats, ranging from 6-10 weeks of age were used in each study. Animals were weighed and dosed based on individual body weight measured the morning of dosing. LNPs were dosed via the lateral tail vein in a volume of 2 mL per kilogram of animal body weight. The animals were periodically observed for adverse effects for at least 24 hours post dose.
For studies measuring in vivo editing in liver, Sprague-Dawley female rats were dosed at 0.1 mpk or 0.03 mpk, unless otherwise noted. Animals were euthanized at 6 or 7 days by carbon dioxide asphyxiation and a heart clip or by ex sanguination via cardiac puncture under isoflourane anesthesia. Blood was collected into serum separator tubes. Liver tissue was collected. Genomic DNA was isolated from the liver tissue for editing measurement by Next-Generation Sequencing (NGS).
In brief, to quantitatively determine the efficiency of editing at the target location in the genome, genomic DNA was isolated and deep sequencing was utilized to identify the presence of insertions and deletions introduced by gene editing.
PCR primers were designed around the target site (e.g., TTR), and the genomic area of interest was amplified. Additional PCR was performed according to the manufacturer's protocols (Illumina) to add the necessary chemistry for sequencing. The amplicons were sequenced on an Illumina MiSeq instrument. The reads were aligned to the […] after eliminating those having low quality scores. The resulting files containing the reads were mapped to the reference genome (BAM files), where reads that overlapped the target region of interest were selected and the number of wild type reads versus the number of reads which contain an insertion, substitution, or deletion was calculated.
The editing percentage (e.g., the “indel efficiency” or “percent indels” or “% editing” or “% indel”) can be defined as the total number of sequence reads with insertions or deletions over the total number of sequence reads, including wild type.
In vivo editing efficiency for materials delivered with formulations including various amine lipid (or ionizable lipid) compounds in Experiments 1 through 14 as described in Tables 3 and 4 was assessed. Editing was measured using G000534 (SEQ ID NO: 5) which targets the rat TTR gene. […]

Where [2] appears, read: sodium phosphate buffer, Table 2, unformulated amine lipid, TNS, read-out: Lipid pKa.
[3] abbreviates: Experiment 14, 0.03 mpk, LNP with C13 Ether.
Where [4] appears, read: Experiment 7, 0.1 mpk, LNP with PEG2K-DMG.

Read-outs that look alike come from different tables or passages of the source.

Take `CCCCC/C=C\C/C=C\CCCCCCCC(=O)OCC(CCCCCCCCC(=O)OC(CCCC)CCCC)COC(=O)OCCCN(CC)CC` (stereo not drawn) [Compound 21, 2-((((3-(diethylamino)propoxy)carbonyl)oxy)methyl)-11-(nonan-5-yloxy)-11-oxoundecyl (9Z,12Z)-octadeca-9,12-dienoate]: the pKa in series [1] (setting [2]) came to 6.2.

`CCCCCCCCC(CCCCCCCC)OC(=O)CCCCCC(=O)OCC(COC(=O)CCCCCC(=O)OC(CCCCCCCC)CCCCCCCC)COC(=O)NCCN(CC)CC` [Compound 38, O′1,O1-(2-((((2-(diethylamino)ethyl)carbamoyl)oxy)methyl)propane-1,3-diyl) 7,7′-di(heptadecan-9-yl) di(heptanedioate)] gave a Mean % editing in the series on rat TTR gene (setting [3]) of 19.4%. Also, the pKa in series [1] (setting [2]) was determined as 6.56.

With `CCCCCCCCC(CCCCCCCC)C(=O)OCCCC(=O)OCC(COC(=O)CCCOC(=O)C(CCCCCCCC)CCCCCCCC)COC(=O)NCCN(CC)CC` [Compound 39, [4-[2-[2-(diethylamino)ethylcarbamoyloxymethyl]-3-[4-(2-octyldecanoyloxy)butanoyloxy]propoxy]-4-oxo-butyl]2-octyldecanoate], the Mean % editing in the series on rat TTR gene (setting [3]) was 11.3%. In addition, the pKa in series [1] (setting [2]) worked out at 6.63.

Molecule `CCCCCCCCOC(CCC(=O)OCC(COC(=O)CC(CCCC)CCCCCC)COC(=O)NCCN(CC)CC)OCCCCCCCC` (stereo not drawn) [Compound 44, 3-((4,4-bis(octyloxy)butanoyl)oxy)-2-((((2-(diethylamino)ethyl)carbamoyl)oxy)methyl)propyl 3-butylnonanoate] registered a Mean % editing in the series with rat TTR gene (setting [4]) of 59.8%.

`CCCCCCCCOC(CCC(=O)OCC(COC(=O)CCCCCCCC)COC(=O)OCCCN(CC)CC)OCCCCCCCC` (stereo not drawn) [Compound 45, 3-((4,4-bis(octyloxy)butanoyl)oxy)-2-((((3-(diethylamino)propoxy)carbonyl)oxy)methyl)propyl Nonanoate]: the Mean % editing in the series with rat TTR gene (setting [4]) stood at 1.8%.

On to `CCCCCCCCOC(CCC(=O)OCC(COC(=O)CCCCCCCC)COC(=O)NCCN(CC)CC)OCCCCCCCC` (stereo not drawn) [Compound 46, 3-((4,4-bis(octyloxy)butanoyl)oxy)-2-((((2-(diethylamino)ethyl)carbamoyl)oxy)methyl)propyl Nonanoate], for which, in the series with rat TTR gene (setting [4]), the Mean % editing is reported as 0.2%.

Turning to `CCCCCCCCOC(CCC(=O)OCC(COC(=O)OCCCN(CC)CC)COC(=O)C(CCCC)CCCCCC)OCCCCCCCC` (stereo not drawn) [Compound 47, 3-((4,4-bis(octyloxy)butanoyl)oxy)-2-((((3-(diethylamino)propoxy)carbonyl)oxy)methyl)propyl 2-butyloctanoate], the Mean % editing in the series with rat TTR gene (setting [4]) amounted to 56.3%.

The molecule `CCCCC/C=C\C/C=C\CCCCCCCC(=O)OCC(COC(=O)CCCC(=O)OC(CCCCCCCC)CCCCCCCC)COC(=O)OCC1CCCN(CC)C1` (stereo not drawn) [Compound 62, 3-((((1-ethylpiperidin-3-yl)methoxy)carbonyl)oxy)-2-((((9Z,12Z)-octadeca-9,12-dienoyl)oxy)methyl)propyl heptadecan-9-yl glutarate] showed a Mean % editing in the series on rat TTR gene (Table 8, 0.03 mpk, LNP with C13 Ether) of 28.0%.

In the case of `CCCCCCCCC(CCCCCCCC)OC(=O)CCCCC(=O)OCC(COC(=O)CCCCC(=O)OC(CCCCCCCC)CCCCCCCC)COC(=O)OCCCN1CCCC1` [Compound 69, di(heptadecan-9-yl) O,O′-(2-((((3-(pyrrolidin-1-yl)propoxy)carbonyl)oxy)methyl)propane-1,3-diyl) diadipate], the “Mean % editing in rat liver” value in the series on rat TTR gene (NGS, dose 0.03 mpk, LNP with G000534 sgRNA and Cas9 mRNA 1:2 w/w, 3% C13 Ether (Compound 53: 3% PEG2K-DMG), N=5 (Compound 33: N=4)) is on record as 7.3%. The pKa in series [1] (read-out: pKa) was 6.4.

The pKa is the negative logarithm of the acid dissociation constant.

The values above are taken from patent publication US20260337153A1, “IONIZABLE AMINE LIPIDS” (Intellia Therapeutics, Inc., priority 2023, published 2026).
